The source of these data is patent US11396517B1, “Exo-aza spiro inhibitors of menin-MLL interaction” (Janssen Pharmaceutica NV, priority 2017, dated 2022).

The IC50 is the concentration at which inhibition is half-maximal.

What all share (format): cell-based, human
Experiment [1] relates to MV-4-11. The experiment can be described thus: Proliferation assay A (spheroid assay) MV-4-11. The conditions noted are these: MV-4-11 cells, 8 d, AUC of confluence against time, absolute IC50, read-out: (3a) Spheroid assay MV-4-11 (IC50(μM)) Assay A. In a few lines: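 Spheroid growth in ultra-low-attachment round-bottom wells (1,500 MV-4-11, 300 MOLM14 or 750 K562 cells), compound titration at 0.3% DMSO, 8 d at 37° C. Confluence imaged every 4 h; AUC from t=0 baseline expressed as % of DMSO control and fitted for absolute IC50.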

In experiment [2] the test system is MOLM14. The experiment can be described thus: Proliferation assay A (spheroid assay) MOLM14. To be noted: Homo sapiens, MOLM-14, 192 h, MOLM14 cells, 8 d, AUC of confluence against time, absolute IC50; read-out: (3a) Spheroid assay MOLM14 (IC50(μM)) Assay A. The protocol: 3a) Proliferation Assay A
The anti-proliferative effect of menin/MLL protein/protein interaction inhibitor test compounds was assessed in human leukemia cell lines. The cell lines MV-4-11 and MOLM14 harbor MILL translocations and express the MILL fusion proteins MLL-AF4 and MLL-AF9, respectively, as well as the wildtype protein from the second allele. […] K562 was used as a control cell line containing two MLL wildtype alleles in order to exclude compounds that display general cytotoxic effects.
MV-4-11 and MOLM14 were cultured in RPMI-1640 (Sigma Aldrich) supplemented with 10% fetal bovine serum (HyClone), 2 mM L-glutamine (Sigma Aldrich) and 50 μg/ml gentamycin (Gibco). K562 were propagated in RPMI-1640 (Sigma Aldrich) supplemented with 20% fetal bovine serum (HyClone), 2 mM L-glutamine (Sigma Aldrich) and 50 μg/ml gentamycin (Gibco).
In order to assess the anti-proliferative effects, 1,500 MV-4-11, 300 MOLM14 or 750 K562 cells were seeded in 200 μl media per well in 96-well round bottom, ultra-low attachment plates (Costar, catalogue number 7007). Cell seeding numbers were chosen based on growth curves to ensure linear growth throughout the experiment. Test compounds were added at different concentrations and the DMSO content was normalized to 0.3%. Cells were incubated for 8 d at 37° C. and 5% CO2. Spheroid like growth was monitored in real-time by live-cell imaging (IncuCyteZOOM, Essenbio, 4× objective) acquiring one image every four hours for 8 d. Confluence (%) as a measure of spheroid size was determined using an integrated analysis tool.
In order to determine the cumulative effect of the test compounds over time, the area under the curve (AUC) in a plot of confluence against time was calculated. Confluence at the beginning of the experiment (t=0) was used as baseline for the AUC calculation.
Absolute IC50 values were calculated according to the following procedure: % Control=(AUC sample/AUC control)*100
AUC control mean AUC of control values (cells without compound/DMSO as vehicle control)
A non-linear curve fit was applied using the least squares (ordinary) fit method to the plot of % control versus compound concentration. Based on this, the absolute IC50 value (half maximal inhibitory concentration of the test compound causing an anti-proliferative effect of 50% relative to the vehicle control) was calculated.

Experiment [3] concerns MOLM14. The experiment can be described thus: Proliferation assay B (spheroid assay) MOLM14. To be noted: MOLM14 cells, confluence at day 8, absolute IC50, read-out: (3b) Spheroid assay MOLM14 (IC50(μM)) Assay B. In outline:
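IC50 derived from % effect on day-8 imaged confluence, scaled between DMSO-treated cells (high) and 1 μM staurosporine (low), using a variable-slope fit constrained 0-100%. Cells seeded as spheroids in ultra-low-attachment plates and exposed to compound for 8 days, 0.3% DMSO.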

Read-outs that look alike come from different tables or passages of the source.

In the case of `FC(F)(F)Cc1cc2c(N3CCC4(CC(Nc5ccc6cc[nH]c6c5)C4)C3)ncnc2s1` (mixture of isomers) [Compound 311], the IC50 in experiment [1] (Homo sapiens, MV4-11, 192 h) is 2.13 µM; in experiment [2], 3.98 µM; in experiment [3] (Homo sapiens, MOLM-14, 192 h), more than 3.75 µM.
As to `O=c1[nH]c2cc(CNC3CCC4(C3)CN(c3ncnc5sc(CC(F)(F)F)cc35)C4)ccc2o1` (single isomer, unassigned) [Compound 58], the IC50 in experiment [1] worked out at 0.03 µM; in experiment [3] (Homo sapiens, MOLM-14, 192 h), 0.2 µM.
On to `Cn1c(=O)[nH]c2cc(CNC3CCC4(C3)CN(c3ncnc5sc(CC(F)(F)F)cc35)C4)ccc21` (centres unmarked) [Compound 54], for which the IC50 in experiment [1] (Homo sapiens, MV4-11, 192 h) turned out to be 0.16 µM; in experiment [2], 0.82 µM; in experiment [3] (Homo sapiens, MOLM-14, 192 h) it was 1.05 µM.
With `CNC(=O)c1ccc(NC2CC3(CCN(c4ncnc5sc(CC(F)(F)F)cc45)C3)C2)cc1` (centres unmarked) [Compound 93], the IC50 turned out to be 0.09 µM in experiment [1] (Homo sapiens, MV4-11, 192 h); 0.7 µM in experiment [2]; 0.62 µM in experiment [3].
